The results in this text go back to patent EP4745134A1 (Jiangsu Yahong Meditech Co., Ltd., priority 2023, dated 2025).

The test system of one test is HCT116-WT cells. The test can be described thus: Inhibitory activity against cell proliferation (CellTiter Glo, 6 days), HCT116-WT. Type of test: cell-based. The note with it: HCT116-WT cells, 6 days, CellTiter Glo, read-out: HCT116-WT IC50. As to the method:
(§1) HCT116-WT (ATCC, CCL-247) and HCT116 MTAP KO (Nanjing Cobioer, CBP75002) cells were seeded into white low-transparency sterile 96-well cell culture plates at a density of 250 cells per well respectively, and the culture medium was McCoy's 5A Medium+10% FBS. The plates were placed under the condition of 37°C and 5% CO2 to be cultured overnight. The cells were treated with 4-fold serially diluted compounds of 8 concentration points starting at an initial concentration of 10000 nM, and the last two columns were used as control wells to which only DMSO was added. The drug-treated cells were further cultured for 6 days. On day 7, CellTiter Glo® reagent was added at 50 uL per well, and after reaction under shaking for 10 minutes at room temperature, the chemiluminescence signals were detected for the well plates through the chemiluminescence detection method using a BIOTEK H1 multifunctional microplate-reader. The IC50 values for inhibition of the compounds on cell viability were calculated in X1fit 5.0 software. Table 2. IC50 values for inhibition of the compounds on HCT116 MTAP KO/WT cell growth
Background: Cellular ATP, detected with luciferase, serves as a proxy for viable cell number.

A further test has as its system HCT116 MTAP KO cells. Put plainly: Inhibitory activity against cell proliferation (CellTiter Glo, 6 days), HCT116 MTAP KO. To be noted: for IC50: HCT116 MTAP KO cells, 6 days, CellTiter Glo, read-out: HCT116 MTAP KO IC50; for Selectivity HCT 116-WT/ HCT116 MTAP KO: ratio of IC50 HCT116-WT / HCT116 MTAP KO. Type of test: cell-based. Here is the method:
as §1

The target of a further test is PRMT5-MTA (Homo sapiens, UniProt O14744). The test can be described thus: Enzymatic inhibitory activity against PRMT5-MTA (AlphaScreen). To be noted: read-out: IC50. Type of test: biochemical. The procedure, abridged:
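PRMT5/[…] (1 nM) was preincubated for 30 min at room temperature with 1 µM […] and 2.5 µM SAM, then exposed to compound (10-point, 3-fold from 1000 nM) for 15 min at 23 °C. Histone H4 substrate (5 nM) was added and reacted for 45 min at 23 °C. Symmetric dimethyl-R3 H4 was detected by AlphaScreen and IC50 calculated.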

Where two headings read alike, the source gives them in different places. Where only a bound is given, the exact number is not on record here.

Sequence of PRMT5-MTA (O14744 whole entry): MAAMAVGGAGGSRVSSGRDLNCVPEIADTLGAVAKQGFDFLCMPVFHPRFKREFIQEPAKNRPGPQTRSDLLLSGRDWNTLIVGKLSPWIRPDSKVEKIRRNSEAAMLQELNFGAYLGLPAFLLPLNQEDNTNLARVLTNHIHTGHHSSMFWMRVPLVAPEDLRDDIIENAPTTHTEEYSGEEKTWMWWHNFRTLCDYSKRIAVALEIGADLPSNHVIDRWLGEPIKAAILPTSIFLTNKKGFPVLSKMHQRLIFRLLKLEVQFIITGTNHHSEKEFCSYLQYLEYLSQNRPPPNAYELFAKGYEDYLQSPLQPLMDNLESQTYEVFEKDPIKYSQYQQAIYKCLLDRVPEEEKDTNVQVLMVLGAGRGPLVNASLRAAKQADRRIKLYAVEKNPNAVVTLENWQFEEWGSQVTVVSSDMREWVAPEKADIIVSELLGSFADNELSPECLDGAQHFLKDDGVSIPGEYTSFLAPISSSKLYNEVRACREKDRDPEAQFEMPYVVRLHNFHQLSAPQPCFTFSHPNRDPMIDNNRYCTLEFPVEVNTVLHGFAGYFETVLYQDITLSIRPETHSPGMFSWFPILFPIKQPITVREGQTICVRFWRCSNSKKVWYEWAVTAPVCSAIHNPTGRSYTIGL
Sequence of PRMT5-MTA (Q9BQA1 whole entry partner): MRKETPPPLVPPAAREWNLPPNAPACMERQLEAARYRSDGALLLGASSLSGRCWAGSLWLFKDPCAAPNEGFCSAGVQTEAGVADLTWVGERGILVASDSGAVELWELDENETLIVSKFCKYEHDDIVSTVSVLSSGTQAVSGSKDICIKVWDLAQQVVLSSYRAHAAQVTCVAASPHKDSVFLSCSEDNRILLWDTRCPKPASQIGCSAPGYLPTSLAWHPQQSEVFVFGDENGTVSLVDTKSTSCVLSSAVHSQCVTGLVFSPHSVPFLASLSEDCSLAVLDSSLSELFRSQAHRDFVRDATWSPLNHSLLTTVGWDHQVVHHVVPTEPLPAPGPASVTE

As a reminder, the IC50 is the concentration that gives 50% inhibition. For the compound `[2H]C([2H])([2H])c1cc2cc(C(=O)N(Cc3ccc(C(F)(F)F)cn3)N(C)c3ncccc3F)ccc2nc1N` [Example 309, 2-amino-N'-(3-fluoropyridin-2-yl)-N'-methyl-3-(methyl-d3)-N-((5-(trifluoromethyl)pyridin-2-yl)methyl)quinoline-6-carbohydrazide], the IC50 in the test with HCT116-WT cells (144 h) was 466 nM; in the test with HCT116 MTAP KO cells (Homo sapiens, HCT-116, 144 h) it was 30 nM. Also, in the test on HCT116 MTAP KO cells, the “Selectivity HCT 116-WT/ HCT116 MTAP KO” value is listed as 15.53.
For the compound `Nc1nc2ccc(C(=O)N3CCCN3c3ccc(C(F)(F)F)cn3)cc2c2c1COC2` [Example 341, (4-amino-1,3-dihydrofuro[3,4-c]quinolin-8-yl)(2-(5-(trifluoromethyl)pyridin-2-yl)pyrazolidin-1-yl)methanone], the IC50 was 4.7 nM on PRMT5-MTA and greater than 10000 nM in the test on HCT116 MTAP KO cells (Homo sapiens, HCT-116, 144 h).
As for `Cc1csc(-c2ccc(CN(C(=O)c3ccc4nc(N)c(C)cc4c3)N(C)c3ncccn3)nc2)n1` [Example 227, 2-amino-N',3-dimethyl-N-((5-(4-methylthiazol-2-yl)pyridin-2-yl)methyl)-N'-(pyrimidin-2-yl)quinoline-6-carbohydrazide], the concentration for half-maximal inhibition (IC50) in the test with HCT116-WT cells (144 h) was 3420 nM; in the test with HCT116 MTAP KO cells (Homo sapiens, HCT-116, 144 h), 140 nM. In addition, the “Selectivity HCT 116-WT/ HCT116 MTAP KO” value in the test on HCT116 MTAP KO cells turned out to be 24.44.
Take `Cc1cc2cc(C(=O)N(Cc3ccc(C(F)(F)C(F)(F)F)cn3)N(C)c3ncccn3)ccc2nc1N` [Example 293, 2-amino-N,3-dimethyl-N-((5-(perfluoroethyl)pyridin-2-yl)methyl)-N-(pyrimidin-2-yl)q uinoline-6-carbohydrazide]: the IC50 with HCT116-WT cells (144 h) turned out to be 666 nM; in the test with HCT116 MTAP KO cells (Homo sapiens, HCT-116, 144 h) it was 25 nM. The “Selectivity HCT 116-WT/ HCT116 MTAP KO” value in the test on HCT116 MTAP KO cells was determined as 26.64.
With `Cc1cc2cc(C(=O)N(Cc3ccc(C(F)(F)F)cn3)n3ccc4ccccc43)ccc2nc1N` [Example 28, 2-amino-N-(1H-indol-1-yl)-3-methyl-N-((5-(trifluoromethyl)pyridin-2-yl)methyl)quinoline-6-carboxamide], the IC50 with HCT116-WT cells (144 h) turned out to be 2530 nM; in the test with HCT116 MTAP KO cells (Homo sapiens, HCT-116, 144 h), 139 nM. For the same compound, the “Selectivity HCT 116-WT/ HCT116 MTAP KO” value with HCT116 MTAP KO cells was determined as 18.22.
As to `Cc1cc2cc(C(=O)N(Cc3ccc(-c4cnn(C(C)(C)C)c4)cn3)N(C)c3ncccn3)ccc2nc1N` [Example 205, 2-amino-N-((5-(1-(tert-butyl)-1H-pyrazol-4-yl)pyridin-2-yl)methyl)-N',3-dimethyl-N'-(pyrimidin-2-yl)quinoline-6-carbohydr azide], the IC50 in the test with HCT116-WT cells (144 h) was found to be 1170 nM; in the test with HCT116 MTAP KO cells (Homo sapiens, HCT-116, 144 h), 58 nM. For the same compound, the “Selectivity HCT 116-WT/ HCT116 MTAP KO” value in the test on HCT116 MTAP KO cells is 20.14.
On to `[2H]C([2H])([2H])c1cc2cc(C(=O)N(Cc3ccc(-c4nncs4)cn3)N(c3ncccn3)C3CC3)ccc2nc1N` [Example 315, N-((5-(1,3,4-thiadiazol-2-yl)pyridin-2-yl)methyl)-2-amino-N'-cyclopropyl-3-(methyl-d3)-N'-(pyrimidin-2-yl)quinoline-6-carbohydrazide], for which the half-maximal inhibitory concentration (IC50) in the test on HCT116-WT cells (144 h) came to 1350 nM; in the test with HCT116 MTAP KO cells (Homo sapiens, HCT-116, 144 h), 54 nM. Besides, the “Selectivity HCT 116-WT/ HCT116 MTAP KO” value in the test on HCT116 MTAP KO cells was found to be 24.96.
Regarding `CN(c1ncccc1F)N(Cc1ccc(C(F)(F)F)cn1)C(=O)c1ccc2nc(N)c3cnn(C)c3c2c1` [Example 74, 4-amino-N'-(3-fluoropyridin-2-yl)-N ',1-dimethyl-N-((5-(trifluoromethyl)pyridin-2-yl)methyl)-1H-pyrazolo[4,3-c]quinoline-8-carbohydrazide], the IC50 in the test with HCT116-WT cells (144 h) came to 90 nM; with HCT116 MTAP KO cells (Homo sapiens, HCT-116, 144 h), 4.4 nM. Besides, the “Selectivity HCT 116-WT/ HCT116 MTAP KO” value in the test on HCT116 MTAP KO cells was found to be 20.45.
With `Cc1cc2cc(C(=O)N(Cc3ccc(-c4ccc(N5CCNCC5)nc4)cn3)N(C)c3ncccn3)ccc2nc1N` [Example 207, 2-amino-N',3-dimethyl-N-((6'-(piperazin-1-yl)-[3,3'-bipyridine]-6-yl)methyl)-N'-(pyrimidin-2-yl)quinoline-6-carbohydrazide], the IC50 was 488 nM with HCT116-WT cells (144 h) and 26 nM with HCT116 MTAP KO cells (Homo sapiens, HCT-116, 144 h). Further, the “Selectivity HCT 116-WT/ HCT116 MTAP KO” value with HCT116 MTAP KO cells is given as 18.77.
`Cc1cc2cc(C(=O)N(Cc3ccc4sc(C5=CCN(C)CC5)nc4c3)N(C)c3ncccn3)ccc2nc1N` [Example 195, 2-amino-N',3-dimethyl-N-((2-(1-methyl-1,2,3,6-tetrahydropyridin-4-yl)benzo[d]thiazol-5-yl)methyl)-N'-(pyrimidin-2-yl)qui noline-6-carbohydrazide]: the IC50 in the test with HCT116-WT cells (144 h) is 3140 nM; in the test on HCT116 MTAP KO cells (Homo sapiens, HCT-116, 144 h) it was 216 nM. Further, in the test with HCT116 MTAP KO cells, the “Selectivity HCT 116-WT/ HCT116 MTAP KO” value is given as 14.53.
As to `Cc1cc2cc(C(=O)N(Cc3ccc(-c4cnc5c(cnn5C)c4)cn3)N(C)c3ncccn3)ccc2nc1N` [Example 198, 2-amino-N',3-dimethyl-N-((5-(1-methyl-1H-pyrazolo[3,4-b]pyridin-5-yl)pyridin-2-yl)methyl)-N'-(pyrimidin-2-yl)quinoline-6-carbohydrazide], the IC50 amounted to 835 nM in the test on HCT116-WT cells and 32 nM in the test with HCT116 MTAP KO cells. The “Selectivity HCT 116-WT/ HCT116 MTAP KO” value in the test on HCT116 MTAP KO cells is on record as 26.09.
On to `Cc1cc2nc(N)c3cnn(C)c3c2cc1C(=O)N1CCCN1c1ccc(F)cn1` [Example 344, (4-amino-1,7-dimethyl-1H-pyrazolo[4,3-c]quinolin-8-yl)(2-(5-fluoropyridin-2-yl)pyrazolidin-1-yl)methanone], for which the concentration for half-maximal inhibition (IC50) on PRMT5-MTA amounted to 4.7 nM; in the test with HCT116 MTAP KO cells (Homo sapiens, HCT-116, 144 h) it was 458 nM.
For the compound `Cc1cc2cc(C(=O)N(Cc3ccc(-c4ccc(N5CCC5)nc4)cn3)N(C)c3ncccn3)ccc2nc1N` [Example 256, 2-amino-N-((6'-(azetidin-1-yl)-[3,3'-bipyridin]-6-yl)methyl)-N',3-dimethyl-N'-(pyrimidin-2-yl)quinoline-6-carbohydrazide], the concentration for half-maximal inhibition (IC50) with HCT116-WT cells (144 h) was 875 nM; in the test on HCT116 MTAP KO cells (Homo sapiens, HCT-116, 144 h), 52 nM. For the same compound, the “Selectivity HCT 116-WT/ HCT116 MTAP KO” value in the test with HCT116 MTAP KO cells came to 16.83.
For `Cc1cc2nc(N)c3cnn(C)c3c2cc1C(=O)N1C(C)CCN1c1ncccc1F` (centres unmarked) [Example 375, (4-amino-1,7-dimethyl-1H-pyrazolo[4,3-c]quinolin-8-yl)(2-(3-fluoropyridin-2-yl)-5-methylpyrazolidin-1-yl)methanone], the IC50 is 2.5 nM at PRMT5-MTA and 280 nM in the test on HCT116 MTAP KO cells.
With `Cc1cc2nc(N)c3cnn(C)c3c2cc1C(=O)N1CCCN1c1ccc(C(F)(F)F)nc1` [Example 329, (4-amino-1,7-dimethyl-1H-pyrazolo[4,3-c]quinolin-8-yl)(2-(6-(trifluoromethyl)pyridin-3-yl)pyrazolidin-1-yl)methanone], the IC50 at PRMT5-MTA is 3.4 nM; in the test with HCT116 MTAP KO cells (Homo sapiens, HCT-116, 144 h), 831 nM.
As for `Cc1cc2nc(N)c3cnn(C)c3c2cc1C(=O)N1CCCN1c1ncccn1` [Example 332, (4-amino-1,7-dimethyl-1H-pyrazolo[4,3-c]quinolin-8-yl)(2-(pyrimidin-2-yl)pyrazolidin-1-yl)methanone], the IC50 at PRMT5-MTA amounted to 6 nM; with HCT116 MTAP KO cells (Homo sapiens, HCT-116, 144 h) it was 405 nM.
Turning to `Cc1cc2nc(N)c3cnn(C)c3c2cc1C(=O)N1CCCN1c1ccccn1` [Example 349, (4-amino-1,7-dimethyl-1H-pyrazolo[4,3-c]quinolin-8-yl)(2-(pyridin-2-yl)pyrazolidin-1-yl)methanone], the IC50 on PRMT5-MTA was determined as 6.1 nM; with HCT116 MTAP KO cells (Homo sapiens, HCT-116, 144 h), 458 nM.
In the case of `Cc1cc(N)nc2ccc(C(=O)N(Cc3ccc(C(F)(F)F)cn3)N(C)c3ncccn3)cc12` [Compound 30, 2-amino-N',4-dimethyl-N'-(pyrimidin-2-y 1)-N-((5-(trifluoromethyl)pyridin-2-yl)methyl)quinoline-6-carbohydrazide], on PRMT5-MTA, the IC50 is 1.9 nM.
In the case of `Cn1ncc2c(N)nc3ccc(C(=O)N4CCCN4c4ccc(C(F)(F)F)cn4)cc3c21` [Example 339, (4-amino-1-methyl-1H-pyrazolo[4,3-c]quinolin-8-yl)(2-(5-(trifluoromethyl)pyridin-2-yl)pyrazolidin-1-yl)methanone], the concentration for half-maximal inhibition (IC50) at PRMT5-MTA amounted to 4.6 nM.
Same read-out and setting: the same measure for `Cc1cc2cc(C(=O)N(Cc3ccc(C(F)(F)F)cn3)N(c3ncccn3)C3CC3)c(F)cc2nc1N` [Example 269, 2-amino-N'-cyclopropyl-7-fluoro-3-methyl-N'-(pyrimidin-2-yl)-N-((5-(trifluoromethyl)pyridin-2-yl)methyl)quinoline-6-car bohydrazide]: 5.7 nM; for `Cc1cc2cc(C(=O)N(Cc3ccc(C(F)(F)F)cn3)N(C)c3ncccc3C(C)C)ccc2nc1N` [Example 136, 2-amino-N'-(3-isopropylpyridin-2-yl)-N', 3-dimethyl-N-((5-(trifluoromethyl)pyridin-2-yl)methyl)quinoline-6-carbohydrazide]: 3.6 nM; for `Cn1ncc2c(N)nc3cc(C(F)(F)F)c(C(=O)N4CCCN4c4ccc(C(F)(F)F)cn4)cc3c21` [Example 505, (4-amino-1-methyl-7-trifluoromethyl-1H-pyrazolo[4,3-c]quinolin-8-yl)(2-(5-(trifluoromethyl)pyridin-2-yl)pyrazolidin-1-yl) methanone]: 3 nM.
